For one experiment, the system named is HSV-1 Strain F. The experiment in a line: Viral qPCR assay, HSV-1. Particulars: Human alphaherpesvirus 1, 72 h, Vero or MRC5 cells, 0.0005-0.004 pfu/cell, growth medium, viral genome copies by qPCR, read-out: HSV1 Cell (EC50). The experiment is classed as cell-based, Herpes Simplex Virus type 1. How it is done:
(§1) MRC5 cells, Vero cells, and MeWo cells were obtained from ATCC, and were maintained at 37° C./5% CO2/90% relative humidity in Minimal Essential Medium with 10% fetal bovine serum, […] L-glutamine, 100 units/ml penicillin and 100 ug/ml streptomycin. Assay plates were prepared by dispensing compounds dissolved in DMSO into wells of 384 well collagen-coated plates using an ECHO acoustic dispenser. Each compound was tested in a 10-point, serial 3-fold dilution. Controls included uninfected cells and infected cells treated only with DMSO. Assays were initiated by mixing selected cells, in suspension, with virus, and dispensing 50 μl/well infected cells to pre-plated compounds. Plates were incubated at 37° C./5% CO2/90% relative humidity for ˜72 hrs to permit genomic replication, and infected cells were lysed by the addition of an equal volume of lysis buffer (10 mM Tris-HCl, pH8, 50 mM KCl, 2 mM MgCl2, 0.45% NP-40, 0.45% Tween-20, and 100 μg/ml proteinase K). An aliquot of the lysate was transferred to a 384-well PCR plate and incubated at 56° C. for 1 hour and then at 95° C. for 10 min. Levels of a viral gene and of the cellular control, PPIA (Thermo Fisher Assay ID=Hs04194521_s1), were measured in separate 10 ul qPCR assays using TaqMan® Gene Expression Master Mix (Applied Biosystems), and an 7900HT Fast Real-Time PCR System with 384-Well Block Module. 7-point, serial 10-fold dilutions of a plasmid standard were run on each plate to generate a standard curve, and genome copies numbers were calculated by plotting experimental Ct onto linear regression of the standard curve. Viral genome copy numbers were normalized by cellular control copy number, and compound effects were normalized to the window defined by the controls. Calculated % effects were fit using a 4-parameter algorithm, and EC50 was reported.
(§2) MRC5 cells, Vero cells, and MeWo cells were obtained from ATCC, and were maintained at 37° C./5% CO2/90% relative humidity in Minimal Essential Medium with 10% fetal bovine serum, […] L-glutamine, 100 units/ml penicillin and 100 ug/ml streptomycin. Assay plates were prepared by dispensing compounds dissolved in DMSO into wells of 384 well collagen-coated plates using an ECHO acoustic dispenser. Each compound was tested in a 10-point, serial 3-fold dilution. Controls included uninfected cells and infected cells treated only with DMSO. Assays were initiated by mixing selected cells, in suspension, with virus, and dispensing 50 μl/well infected cells to pre-plated compounds. Plates were incubated at 37° C./5% CO2/90% relative humidity for ˜72 hrs to permit genomic replication, and infected cells were lysed by the addition of an equal volume of lysis buffer (10 mM Tris-HCl, pH 8, 50 mM KCl, 2 mM MgC12, 0.45% NP-40, 0.45% Tween-20, and 100 μg/ml proteinase K). An aliquot of the lysate was transferred to a 384-well PCR plate and incubated at 56° C. for 1 hour and then at 95° C. for 10 min. Levels of a viral gene were measured in 10 ul qPCR assays using TaqMan® Gene Expression Master Mix (Applied Biosystems), and an 7900HT Fast Real-Time PCR System with 384-Well Block Module. 7-point, serial 10-fold dilutions of a plasmid standard were run on each plate to generate a standard curve, and genome copies numbers were calculated by plotting experimental Ct onto linear regression of the standard curve. Compound effects on viral genome copy number were normalized to the window defined by the controls. Calculated % effects were fit using a 4-parameter algorithm, and ECso was reported.
HSV-1: Strain F […] was assayed in Vero or MRC5 cells and was used at 0.0005-0.004 pfu/cell in growth medium. Primer-probe set was Thermo Fisher Assay ID=AIBJZIB

A further experiment concerns HCMV Strain AD169. Description: Viral qPCR assay, HCMV. It is filed as cell-based, Human cytomegalovirus. Particulars: Human betaherpesvirus 5, AD169, MRC5, 72 h, MRC-5 cells, 0.05-0.1 pfu/cell, growth media or 50% fetal bovine serum, viral genome copies by qPCR, read-out: CMV Cell (EC50). On the procedure:
as §1, §2
HCMV: Strain AD169 Street was assayed in MRC-5 cells and was used at 0.05-0.1 pfu/cell. The assays were performed in either growth media or in the same media with 50% fetal bovine serum. Primer-probe set was Thermo Fisher Assay ID=AIFATFK.
In general terms: Real-time PCR tracks product formation cycle by cycle.

In experiment [1] the target is T1, Human cytomegalovirus DNA polymerase (Human cytomegalovirus, UniProt P08546).
T1 construct: made in house; host or cells: SF21 insect cells (baculovirus vector)
T1 sequence (P08546 whole entry): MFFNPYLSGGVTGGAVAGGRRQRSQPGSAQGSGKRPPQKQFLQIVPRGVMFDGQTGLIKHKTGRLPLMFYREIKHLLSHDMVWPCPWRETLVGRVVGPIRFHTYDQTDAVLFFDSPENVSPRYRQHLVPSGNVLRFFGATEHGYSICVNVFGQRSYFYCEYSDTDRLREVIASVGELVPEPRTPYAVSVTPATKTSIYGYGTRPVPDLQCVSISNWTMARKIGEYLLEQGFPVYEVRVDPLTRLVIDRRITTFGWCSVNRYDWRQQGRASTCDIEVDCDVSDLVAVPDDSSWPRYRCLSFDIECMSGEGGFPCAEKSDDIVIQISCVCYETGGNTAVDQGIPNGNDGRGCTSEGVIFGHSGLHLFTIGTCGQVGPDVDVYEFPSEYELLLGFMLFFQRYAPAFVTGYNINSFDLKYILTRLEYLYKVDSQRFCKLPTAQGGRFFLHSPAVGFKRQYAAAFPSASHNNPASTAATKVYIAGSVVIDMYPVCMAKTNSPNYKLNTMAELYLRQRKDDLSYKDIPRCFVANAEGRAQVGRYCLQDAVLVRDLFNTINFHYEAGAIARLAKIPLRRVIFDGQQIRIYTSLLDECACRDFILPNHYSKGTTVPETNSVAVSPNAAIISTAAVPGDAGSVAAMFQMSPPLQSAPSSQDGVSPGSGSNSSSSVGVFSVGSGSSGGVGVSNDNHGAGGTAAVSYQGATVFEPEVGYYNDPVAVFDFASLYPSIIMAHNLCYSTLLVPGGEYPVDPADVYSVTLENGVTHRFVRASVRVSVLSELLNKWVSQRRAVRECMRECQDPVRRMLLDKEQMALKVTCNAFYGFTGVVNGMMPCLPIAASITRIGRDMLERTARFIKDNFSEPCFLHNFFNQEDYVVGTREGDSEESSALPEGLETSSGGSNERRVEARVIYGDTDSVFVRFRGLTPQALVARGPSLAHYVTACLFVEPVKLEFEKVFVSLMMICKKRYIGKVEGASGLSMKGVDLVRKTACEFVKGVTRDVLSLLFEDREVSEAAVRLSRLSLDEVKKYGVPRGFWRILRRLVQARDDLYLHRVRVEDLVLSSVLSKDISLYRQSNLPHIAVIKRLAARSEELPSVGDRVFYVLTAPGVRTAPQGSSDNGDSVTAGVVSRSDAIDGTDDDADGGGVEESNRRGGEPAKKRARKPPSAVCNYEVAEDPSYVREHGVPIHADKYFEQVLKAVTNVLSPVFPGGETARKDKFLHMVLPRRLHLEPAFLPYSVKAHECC
The experiment in a line: CMV polymerase assay (AlphaLISA). It is filed as biochemical. Particulars: HCMV polymerase 0.2 nM; 30 min pre-incubation; 60 min at 37° C.; read-out: CMV (IC50). On the procedure:
Human cytomegalovirus and varicella zoster virus DNA polymerases were expressed via baculovirus vector in SF21 cells and purified. Heterodimeric nucleic acid substrate used in the herpesvirus polymerase reactions was generated by annealing a 59-mer template to a 17-mer digoxigenin-labeled primer. Polymerase (HCMV final concentration of 0.2 nM; VZV final concentration of 0.4 nM) was combined with an inhibitor compound or DMSO in assay buffer (10 mM HEPES, pH 7.5, 25 mM KCl, 25 mM NaCl, 5 mM MgCl2, 5% glycerol, 0.67 mg/ml bovine serum albumin, and 1 mM tris(2-carboxyethyl)phosphine), and this mixture was pre-incubated for 30 minutes at room temperature in 384-well microtiter plates. The polymerization reaction was initiated by the addition of template/primer substrate (final concentration: 1.6 nM), and dNTPs (final concentration: 24 nM dCTP, 24 nMdGTP, 16 nM dATP, 16 nM dTTP, and 0.8 nM biotin-dUTP). After 60 min incubation at 37° C., reactions were terminated with quench buffer (25 mM HEPES pH 7.5, 100 mM NaCl, 0.25% Tween-20, 12 mM EDTA, and 1 mg/ml bovine serum albumin). Incorporation of biotinylated UTP was detected with 2.5-5 ug/ml anti-DIG AlphaLISA acceptor beads and 5-10 ug/ml streptavidin AlphaLISA donor beads (PerkinElmer). Compound effects were normalized to the window defined by the controls (DMSO only and pre-quenched wells) and were fit using a 4-parameter algorithm to report an IC50.
On the technique in general: In Alpha technology, singlet oxygen from a donor bead excites a nearby acceptor bead.

Another experiment relates to VZV. Description: Viral qPCR assay, VZV. It is filed as cell-based, varicella zoster virus. Particulars: Human alphaherpesvirus 3, 72 h, MeWo or MRC5 cells, 0.04-0.1 pfu/cell, growth medium, viral genome copies by qPCR. On the procedure: as §1, §2
VZV: Strain Street was maintained as an infected cell stock in MRC-5 cells. It was assayed in MeWo or MRC5 cells and was used at 0.04-0.1 pfu/cell. The assays were performed in growth medium. Primer-probe set was Thermo Fisher Assay ID=AIPAEXQ.

Turning to `COc1nc(CC(C)(C)O)c(O[C@H]2CCN3C(=O)OC[C@@H]3C2)cc1C(=O)NCc1ccc(Cl)cc1` [Compound 73], the EC50 (as a rule, the concentration giving half of the maximal effect) in the experiment with HSV-1 Strain F amounted to 575 nM; in the experiment on HCMV Strain AD169, 339 nM; with VZV it was 828 nM. Besides, the IC50 – broadly, the concentration needed to halve the response being measured – in experiment [1] stood at 20.9 nM.
`Cc1nsc(-c2nc(OCC(C)(C)O)c(C(=O)NCc3ccc(Cl)cc3)cc2O[C@H]2CCN3C(=O)OC[C@@H]3C2)n1` [Compound 87]: the EC50 in the experiment on HSV-1 Strain F amounted to 140 nM; with HCMV Strain AD169 it was 108 nM; in the experiment on VZV it was 207 nM. The IC50 in experiment [1] amounted to 5.13 nM.
On the same counts, the results for `COc1nc(-c2ccc(C)s2)c(O[C@H]2CCN3C(=O)OC[C@@H]3C2)cc1C(=O)NCc1ccc(Cl)cc1` [Compound 14] are 824 nM, 1020 nM, 2570 nM and 19.2 nM.
Regarding `CC(O)COc1nc(-c2cnn(C(F)F)c2)c(O[C@H]2CCN3C(=O)OC[C@@H]3C2)cc1C(=O)NCc1ccc(Cl)cc1` (stereo partly shown) [Compound 93], the EC50 in the experiment on HSV-1 Strain F is 59.1 nM; with HCMV Strain AD169 it was 204 nM; in the experiment on VZV it was 250 nM. In addition, the IC50 in experiment [1] came to 4.62 nM.
On the same counts, the results for `COc1ccc(-c2nc(OC)c(C(=O)NCc3ccc(Cl)cc3)cc2O[C@H]2CCN3C(=O)OC[C@@H]3C2)s1` [Compound 33] are 144 nM, 901 nM, 679 nM and 11 nM.
On the same counts, the results for `O=C(NCc1ccc(Cl)cc1)c1cc(O[C@H]2CCN3C(=O)OC[C@@H]3C2)c(-c2cnn(C(F)F)c2)nc1OCCF` [Compound 89] are 203 nM, 195 nM, 246 nM and 12.1 nM.
On the same counts, the results for `COCCn1cc(-c2nc(OC)c(C(=O)NCc3ccc(Cl)cc3)cc2O[C@H]2CCN3C(=O)OC[C@@H]3C2)cn1` [Compound 25] are 146 nM, 159 nM, 186 nM and 6.77 nM.
For the molecule `COc1nc(CC(C)(C)N)c(O[C@H]2CCN3C(=O)OC[C@@H]3C2)cc1C(=O)NCc1ccc(Cl)cc1` [Compound 81], the EC50 in the experiment with HSV-1 Strain F is 2880 nM; in the experiment with HCMV Strain AD169, 558 nM; in the experiment with VZV, 3650 nM. Besides, the IC50 in experiment [1] worked out at 88.6 nM.
On the same counts, the results for `COc1nc(-c2occc2C=O)c(O[C@H]2CCN3C(=O)OC[C@@H]3C2)cc1C(=O)NCc1ccc(Cl)cc1` [Compound 23] are 87.4 nM, 140 nM, 117 nM and 18 nM.
The like results for `CN(C)CCCOc1nc(-c2cnn(C(F)F)c2)c(O[C@H]2CCN3C(=O)OC[C@@H]3C2)cc1C(=O)NCc1ccc(Cl)cc1` [Compound 95] were, in that order, 141 nM, 151 nM, 463 nM and 1.46 nM.
As for `O=C(NCc1ccc(Cl)cc1)c1cc(O[C@H]2CCN3C(=O)OC[C@@H]3C2)c(-c2cnn(C(F)F)c2)nc1OCC1CC1(F)F` (stereo partly shown) [Compound 91], the figures for the EC50 with HSV-1 Strain F, with HCMV Strain AD169 and with VZV were 346 nM, 271 nM and 569 nM, respectively. Besides, the IC50 in experiment [1] is 18.5 nM.
For the molecule `COc1nc(-c2ccsc2)c(O[C@H]2CCN3C(=O)OC[C@@H]3C2)cc1C(=O)NCc1ccc(Cl)cc1` [Compound 21], the EC50 stood at 377 nM in the experiment with HSV-1 Strain F, 500 nM in the experiment with HCMV Strain AD169 and 417 nM with VZV. Besides, the IC50 in experiment [1] came to 20.9 nM.
The like results for `COc1nc(C2CC(O)C2)c(O[C@H]2CCN3C(=O)OC[C@@H]3C2)cc1C(=O)NCc1ccc(Cl)cc1` (single isomer, unassigned) [Compound 74] were, in that order, 271 nM, 356 nM, 709 nM and 31.6 nM.
As to `O=C1CC[C@@H](COc2nc(-c3cnn(C(F)F)c3)c(O[C@H]3CCN4C(=O)OC[C@@H]4C3)cc2C(=O)NCc2ccc(Cl)cc2)N1` [Compound 99], the results for the half-maximal effective concentration (EC50) in the experiment on HSV-1 Strain F, in the experiment on HCMV Strain AD169 and in the experiment with VZV were 493 nM, 282 nM and 1310 nM, respectively. Besides, in experiment [1], the IC50 was 4.67 nM.
The like results for `COc1nc(N2CC3(CC(O)C3)C2)c(O[C@H]2CCN3C(=O)OC[C@@H]3C2)cc1C(=O)NCc1ccc(Cl)cc1` [Compound 66] were, in that order, 262 nM, 146 nM, 648 nM and 5.23 nM.
`COc1nc(-c2ncco2)c(O[C@H]2CCN3C(=O)OC[C@@H]3C2)cc1C(=O)N[C@@H](C)c1ccc(Cl)cc1` [Compound 64]: the EC50 was 597 nM in the experiment on HSV-1 Strain F, 911 nM with HCMV Strain AD169 and 1560 nM with VZV. In experiment [1], the IC50 is 69.3 nM.
For `COc1nc(-c2csc(-n3cccn3)n2)c(O[C@H]2CCN3C(=O)OC[C@@H]3C2)cc1C(=O)NCc1ccc(Cl)cc1` [Compound 29], the EC50 in the experiment with HSV-1 Strain F was 246 nM; with HCMV Strain AD169 it was 514 nM; with VZV it was 368 nM. Moreover, in experiment [1], the IC50 stood at 31.2 nM.
With `CN1CCN(CCCOc2nc(-c3cnn(C(F)F)c3)c(O[C@H]3CCN4C(=O)OC[C@@H]4C3)cc2C(=O)NCc2ccc(Cl)cc2)CC1` [Compound 98], the figures for the EC50 in the experiment on HSV-1 Strain F, in the experiment on HCMV Strain AD169 and with VZV were 290 nM, 115 nM and 617 nM, respectively. For the same molecule, in experiment [1], the IC50 stood at 14.1 nM.
For the molecule `CN(C)CCOc1nc(-c2cnn(C(F)F)c2)c(O[C@H]2CCN3C(=O)OC[C@@H]3C2)cc1C(=O)NCc1ccc(Cl)cc1` [Compound 88], the EC50 came to 257 nM in the experiment on HSV-1 Strain F, 32.5 nM in the experiment on HCMV Strain AD169 and 317 nM in the experiment on VZV. Also, the IC50 in experiment [1] was determined as 3.16 nM.
